The text below walks through data of patent publication US20040044000A1, “Isoquinoline derivatives as matrix metalloproteinase inhibitors” (priority 2002, published 2004).

Format in all cases: biochemical
The target in assay [1] is T1, MMP-13 catalytic domain (MMP-13CD) (Homo sapiens, UniProt P45452).
T1 construct: use the catalytic domain of the MMP-13 enzyme, namely matrix metalloproteinase-13 catalytic domain (“MMP-13CD”), rather than the corresponding full-length enzyme
The assay is described as follows: Inhibition of MMP-13 catalytic domain (thiopeptolide substrate hydrolysis). The following applies: Biological Table 1; read-out: MMP-13CD IC50. An excerpt:
(§1) The assays measure the amount by which a test compound reduces the hydrolysis of a thiopeptolide substrate catalyzed by a matrix metalloproteinase enzyme. Such assays are described in detail by Ye et al., in Biochemistry, 1992;31(45):11231-11235, which is incorporated herein by reference. One such assay is described below in Biological Method 1.
Some of the particular methods described below use the catalytic domain of the MMP-13 enzyme, namely matrix metalloproteinase-13 catalytic domain (“MMP-13CD”), rather than the corresponding full-length enzyme, MMP-13. It has been shown previously by Ye Qi-Zhuang, Hupe D., and Johnson L. (Current Medicinal Chemistry, 1996;3:407-418) that inhibitor activity against a catalytic domain of an MMP is predictive of the inhibitor activity against the respective full-length MMP enzyme.
(§2) Thiopeptolide substrates show virtually no decomposition or hydrolysis at or below neutral pH in the absence of a matrix metalloproteinase enzyme. A typical thiopeptolide substrate commonly utilized for assays is Ac-Pro-Leu-Gly-thioester-Leu-Leu-Gly-OEt. A 100 μL assay mixture will contain 50 mM of N-2-hydroxyethylpiperazine-N′-2-ethanesulfonic acid buffer (“HEPES,” pH 7.0), 10 mM CaCl2, 100 μM thiopeptolide substrate, and 1 mM 5,5′-dithio-bis-(2-nitro-benzoic acid) (DTNB). The thiopeptolide substrate concentration may be varied, for example from 10 to 800 μM to obtain Km and Kcat values. The change in absorbance at 405 nm is monitored on a Thermo Max microplate reader (molecular Devices, Menlo Park, Calif.) at room temperature (22° C.). The calculation of the amount of hydrolysis of the thiopeptolide substrate is based on E412=13600 M^−1 cm^−1 for the DTNB-derived product 3-carboxy-4-nitrothiophenoxide. Assays are carried out with and without matrix metalloproteinase inhibitor compounds, and the amount of hydrolysis is compared for a determination of inhibitory activity of the test compounds.
(§3) Test compounds were evaluated at various concentrations in order to determine their respective IC50 values, the micromolar concentration of compound required to cause a 50% inhibition of catalytic activity of the respective enzyme.

Assay [2] addresses MMP-3 catalytic domain (MMP-3CD) (Homo sapiens, UniProt P08254). The assay is described as follows: Inhibition of MMP-3 catalytic domain (thiopeptolide substrate hydrolysis, MES pH 6.0).
From the text: as §1, §2, §3
It should be appreciated that the assay buffer used with MMP-3CD was 50 mM N-morpholinoethane sulfonate (“MES”) at pH 6.0 rather than the HEPES buffer at pH 7.0 described above.

Assay [3] addresses T2, MMP-12 catalytic domain (MMP-12CD) (Homo sapiens, UniProt P39900).
T2 construct: MMP-3 catalytic domain, MMP-12 catalytic domain, MMP-14 catalytic domain, and MMP-17 catalytic domain
Put plainly: Inhibition of MMP-12 catalytic domain (thiopeptolide substrate hydrolysis).
From the text: as §1, §2, §3
(§4) The test described above for the inhibition of MMP-13 may also be adapted and used to determine the ability of the compounds of Formula I to inhibit the matrix metalloproteases MMP-1, MMP-2, MMP-3, MMP-7, MMP-9, MMP-12 and MMP-14.

The target in assay [4] is MMP-14 catalytic domain (MMP-14CD) (Homo sapiens, UniProt P50281). The assay is described as follows: Inhibition of MMP-14 catalytic domain (thiopeptolide substrate hydrolysis).
From the text: as §1, §2, §3, §4

In assay [5] the target is T3, MMP-17 catalytic domain (MMP-17CD) (Homo sapiens, UniProt Q9ULZ9).
T3 construct: MMP-3 catalytic domain, MMP-12 catalytic domain, MMP-14 catalytic domain, and MMP-17 catalytic domain
T3 sequence (Q9ULZ9 126-295 limits assumed): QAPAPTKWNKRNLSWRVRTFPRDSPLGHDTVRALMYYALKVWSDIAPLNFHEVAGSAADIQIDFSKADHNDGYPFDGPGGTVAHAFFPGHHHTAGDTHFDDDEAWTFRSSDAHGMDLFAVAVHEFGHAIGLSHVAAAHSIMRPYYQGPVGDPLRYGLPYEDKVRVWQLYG
Put plainly: Inhibition of MMP-17 catalytic domain (thiopeptolide substrate hydrolysis).
From the text: as §1, §2, §3

MMP-3 catalytic domain (MMP-3CD), sequence (P08254 100-272 limits assumed, species assumed): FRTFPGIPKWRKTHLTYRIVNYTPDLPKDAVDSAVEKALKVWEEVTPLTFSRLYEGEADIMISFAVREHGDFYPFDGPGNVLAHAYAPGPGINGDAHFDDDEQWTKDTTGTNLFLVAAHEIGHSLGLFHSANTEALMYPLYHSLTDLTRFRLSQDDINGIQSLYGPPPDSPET
T2 sequence (P39900 106-263 limits assumed, species assumed): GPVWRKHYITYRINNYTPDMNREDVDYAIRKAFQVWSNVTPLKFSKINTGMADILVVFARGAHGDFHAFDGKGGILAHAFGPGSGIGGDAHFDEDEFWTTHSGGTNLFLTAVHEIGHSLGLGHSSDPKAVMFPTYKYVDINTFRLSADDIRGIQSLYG

As for `CSc1ccc(CNC(=O)c2ccc3ccn(Cc4ccc(C#N)cc4)c(=O)c3c2)cc1` [Example 40, 2-(4-cyanobenzyl)-1-oxo-1,2-dihydro-isoquinoline-7-carboxylic Acid 4-methylsulfanyl-benzylamide], the IC50 in assay [1] was 0.43 µM; in assay [2], 6.2 µM; in assay [3] it was 6.8 µM; in assay [4], greater than 10 µM; in assay [5], greater than 10 µM.
Turning to `O=C(O)c1ccc(Cn2ccc3ccc(C(=O)NCc4ccncc4)cc3c2=O)cc1` [Example 29, 4-{1-oxo-7-[(pyridin-4-ylmethyl)carbamoyl]-1H-isoquinolin-2-ylmethyl}benzoic Acid], the IC50 in assay [1] was 0.19 µM; in assay [2], greater than 100 µM; in assay [3], greater than 100 µM; in assay [4], greater than 100 µM; in assay [5] it was greater than 100 µM.
`COc1ccc(CNC(=O)c2ccc3ccn(Cc4ccc(F)c(F)c4)c(=O)c3c2)cc1` [Example 25]: the IC50 in assay [1] was 0.33 µM; in assay [2] it was 60 µM; in assay [3] it was greater than 30 µM; in assay [4], greater than 100 µM; in assay [5] it was greater than 30 µM.
On to `N#Cc1ccc(Cn2ccc3ccc(C#CCc4ccccc4)cc3c2=O)cc1` [Example 19], for which the IC50 is 0.049 µM in assay [1]; 5 µM in assay [2]; greater than 100 µM in assay [3]; 28 µM in assay [4]; greater than 100 µM in assay [5].
As for `O=c1c2cc(C#CCc3ccccc3)ccc2ccn1Cc1ccc(-c2nn[nH]n2)cc1` [Example 18, 7-(3-phenylprop-1-ynyl)-2-[4-(2H-tetrazol-5-yl)benzyl]-2H-isoquinolin-1-one], the concentration for half-maximal inhibition (IC50) in assay [1] was 0.0029 µM; in assay [2], 4 µM; in assay [3] it was greater than 30 µM; in assay [4] it was greater than 30 µM; in assay [5] it was greater than 30 µM.
On to `COc1cccc(CNC(=O)c2ccc3ccn(Cc4ccc(F)c(F)c4)c(=O)c3c2)c1` [Example 24], for which the IC50 in assay [1] is 0.093 µM; in assay [2] it was greater than 30 µM; in assay [3], 14 µM; in assay [4], 0.093 µM; in assay [5], greater than 30 µM.
`O=C(NCc1ccncc1)c1ccc2ccn(Cc3ccc(-c4nn[nH]n4)cc3)c(=O)c2c1` [Example 57, 1-oxo-2-[4-(2H-tetrazol-5-yl)benzyl]-1,2-dihydroisoquinoline-7-carboxylic Acid (pyridin-4-ylmethyl)amide]: the half-maximal inhibitory concentration (IC50) in assay [1] is 0.04 µM; in assay [2] it was greater than 100 µM; in assay [3] it was greater than 30 µM; in assay [4], greater than 100 µM; in assay [5], greater than 100 µM.
Take `Cc1ccc(CNC(=O)c2ccc3ccn(Cc4ccc(-c5nn[nH]n5)cc4)c(=O)c3c2)cc1` [Example 60, 1-oxo-2-[4-(2H-tetrazol-5-yl)benzyl]-1,2-dihydroisoquinoline-7-carboxylic Acid 4-methyl-benzylamide]: the IC50 was 0.22 µM in assay [1]; 31 µM in assay [2]; 22 µM in assay [3]; greater than 100 µM in assay [4]; greater than 100 µM in assay [5].
For `COc1cc(CNC(=O)c2ccc3ccn(Cc4ccc(F)c(F)c4)c(=O)c3c2)ccn1` [Example 23, 2-(3,4-difluorobenzyl)-1-oxo-1,2-dihydroisoquinoline-7-carboxylic acid (2-methoxypyridin-4-ylmethyl)amide], the IC50 is 0.29 µM in assay [1]; greater than 100 µM in assay [2]; greater than 100 µM in assay [3]; greater than 100 µM in assay [4]; greater than 10 µM in assay [5].
Take `O=C(O)c1ccc(Cn2ccc3ccc(C(=O)NCc4ccc(F)cc4)cc3c2=O)cc1` [Example 31, 4-[7-(4-fluoro-benzylcarbamoyl)-1-oxo-1H-isoquinolin-2-ylmethyl]benzoic Acid]: the IC50 was 0.03 µM in assay [1]; greater than 100 µM in assay [2]; greater than 100 µM in assay [3]; greater than 100 µM in assay [4]; greater than 100 µM in assay [5].
Take `COc1cc(CNC(=O)c2ccc3ccn(Cc4ccc(-c5nn[nH]n5)cc4)c(=O)c3c2)ccc1O` [Example 65, 1-oxo-2-[4-(2H-tetrazol-5-yl)benzyl]-1,2-dihydroisoquinoline-7-carboxylic Acid 4-hydroxy-3-methoxy-benzylamide]: the half-maximal inhibitory concentration (IC50) is 0.091 µM in assay [1]; greater than 100 µM in assay [2]; greater than 10 µM in assay [3]; greater than 100 µM in assay [4]; greater than 30 µM in assay [5].
On to `CSc1ccc(CNC(=O)c2ccc3ccn(Cc4ccc(-c5nn[nH]n5)cc4)c(=O)c3c2)cc1` [Example 61, 1-oxo-2-[4-(2H-tetrazol-5-yl)benzyl]-1,2-dihydroisoquinoline-7-carboxylic Acid 4-methyl-sulfanylbenzylamide], for which the half-inhibitory concentration (IC50) in assay [1] is 0.032 µM; in assay [2] it was 12 µM; in assay [3] it was 5 µM; in assay [4], greater than 10 µM; in assay [5], greater than 10 µM.
In the case of `COc1cc(CNC(=O)c2ccc3ccn(Cc4ccc(C(=O)O)cc4)c(=O)c3c2)ccc1O` [Example 32], the half-maximal inhibitory concentration (IC50) in assay [1] was 0.15 µM; in assay [2], greater than 100 µM; in assay [3], greater than 100 µM; in assay [4], greater than 100 µM; in assay [5], greater than 100 µM.
Take `COc1ccc(CNC(=O)c2ccc3ccn(Cc4ccc(C#N)cc4)c(=O)c3c2)cc1` [Example 36, 2-(4-cyanobenzyl)-1-oxo-1,2-dihydro-isoquinoline-7-carboxylic Acid 4-methoxybenzylamide]: the 50% inhibitory concentration (IC50) is 0.24 µM in assay [1], 19 µM in assay [2], 24 µM in assay [3] and greater than 30 µM in assay [4].
Regarding `COc1cc(CNC(=O)c2ccc3ccn(Cc4ccc(S(C)(=O)=O)cc4)c(=O)c3c2)ccn1` [Example 51, 2-(4-methane-sulfonylbenzyl)-1-oxo-1,2-dihydro-isoquinoline-7-carboxylic Acid (2-methoxypyridin-4-ylmethyl)amide], the IC50 in assay [1] is 0.68 µM; in assay [2] it was greater than 100 µM; in assay [3], greater than 30 µM; in assay [4], greater than 100 µM; in assay [5], greater than 100 µM.
With `COc1ccc(CNC(=O)c2ccc3ccn(Cc4ccc(-c5nn[nH]n5)cc4)c(=O)c3c2)cc1` [Example 58, 1-oxo-2-[4-(2H-tetrazol-5-yl)benzyl]-1,2-dihydroisoquinoline-7-carboxylic Acid 4-methoxy-benzylamide], the IC50 is 0.017 µM in assay [1]; 27 µM in assay [2]; 56 µM in assay [3]; greater than 100 µM in assay [4]; 11 µM in assay [5].
Consider `COc1cccc(CNC(=O)c2ccc3ccn(Cc4ccc(-c5nn[nH]n5)cc4)c(=O)c3c2)c1` [Example 59, 1-oxo-2-[4-(2H-tetrazol-5-yl)benzyl]-1,2-dihydroisoquinoline-7-carboxylic Acid 3-methoxy-benzylamide], for which the IC50 in assay [1] is 0.0029 µM; in assay [2], greater than 10 µM; in assay [3], greater than 10 µM; in assay [4] it was greater than 30 µM; in assay [5], greater than 30 µM.
For the compound `O=C(NCc1ccc(-c2csnn2)cc1)c1ccc2ccn(Cc3ccc(-c4nn[nH]n4)cc3)c(=O)c2c1` [Example 64, 1-oxo-2-[4-(2H-tetrazol-5-yl)benzyl]-1,2-dihydroisoquinoline-7-carboxylic Acid 4-[1,2,3]thiadiazol-4-yl-benzylamide], the IC50 in assay [1] was 0.068 µM; in assay [2] it was 16 µM; in assay [5] it was greater than 10 µM.

By IC50 is commonly meant the concentration at which inhibition is half-maximal.
